Reference: ChEMBL document CHEMBL5727772, “Substituted 3,4,5,6,8,10,14,14a-octahydro-2h-2,6-methanopyrido[1′,2′:4,5]pyrazino[2,1-b][1,3]oxazocines and methods for treating viral infections” (2020)

Assay: 24 hours prior to assay, media containing 5 mM sodium butyrate were added to MDCKII cells in flasks, and cells were grown to 80-90% confluence. On assay day, cells were trypsinized and resuspended in Krebs-Henseleit Buffer (KHB), pH 7.4 at 5×10^6 […] cells/mL. Cells were preincubated for 15 min in assay plate before addition of test compound or substrate.Test compounds were serially diluted in DMSO and then spiked (2 μL) into in 0.4 mL KHB buffer containing wild-type or OCT2-transfected cells and incubated for 10 minutes. Assay was initiated with the addition of 0.1 mL of 100 μM 14C-TEA in KHB buffer (20 μM final concentration after mixing). The concentration of TEA is based on the Km. After 10 minutes of incubation, the assay mixture was quenched with addition of 0.5 mL of ice-cold 1×PBS buffer. Samples were then centrifuged at 1000 rpm for 5 min and supernatants were removed. Wash steps were repeated four times with ice-cold PBS. Finally, the cell pellets were lysed with 0.2N NaOH and let sit at room temperature for at least 30 min to ensure complete lysis.
Conditions: MDCK-II

SMILES | IC50
O=C(NCc1cc(F)ccc1F)c1cn2c(cc1=O)C(=O)N1C3CCC(C3)C1C2 (stereo not drawn) | 0.45 µM
C[C@@H](NC(=O)c1cn2c(c(O)c1=O)C(=O)N1C(C2)O[C@@H]2CC[C@@H]1C2)c1ccc(F)cc1F (stereo partly drawn) | 0.61 µM
O=C(NCc1c(F)cc(F)cc1F)c1cn2c(c(O)c1=O)C(=O)N1C3CCC(C3)O[C@H]1C2 (stereo partly drawn) | 0.137 µM
